System: PDE IV
Test: Inhibition of PDE IV activity (Bauer and Schwabe method adapted to microtiter plates)
Format: biochemical
Details: Table A; two-step PDE / 5'-nucleotidase assay, ion-exchange separation

| Compound | Inhibition of PDE IV activity, -log IC50 |
| --- | --- |
| COc1ccc(C(=O)Nc2c(F)cccc2F)c2c1OC1(CCCC1)C2 [Compound 8, 2,3-Dihydro-7-methoxybenzofuran-2-spiro-1'-cyclopentane-4-carboxylic acid-2,6-difluoroanilide] | 8.42 |
| COc1ccc(C(=O)Nc2c(Cl)cncc2Cl)c2c1OC(C)(C)C2 [Compound 1, 2,3-Dihydro-2,2-dimethyl-7-methoxybenzofuran-4-carboxylic acid-N-3,5-dichloro-4-pyridylamide] | 8.47 |
| COc1ccc(C(=O)Nc2c(Cl)cncc2Cl)c2c1OC1(CCOCC1)C2 [Compound 5, 2,3-Dihydro-7-methoxybenzofuran-2-spiro-1'-(4'-oxacyclohexane)-4-carboxylic acid-N-3,5-dichloro-4-pyridylamide] | 8.57 |
| COc1ccc(C(=O)Nc2c(Cl)cncc2Cl)c2c1OC1(CCCCC1)C2 [Compound 4, 2,3-dihydro-7-methoxybenzofuran-2-spiro-1'-cyclohexane-4-carboxylic acid-N-3,5-dichloro-4-pyridylamide] | 9.09 |
| CCC1(CC)Cc2c(C(=O)Nc3c(Cl)cncc3Cl)ccc(OC)c2O1 [Compound 6, 2,2-Diethyl-2,3-dihydro-7-methoxybenzofuran-4-carboxylic acid-N-3,5-dichloro-4-pyridylamide] | 8.63 |
| COc1ccc(C(=O)Nc2c(Cl)cccc2Cl)c2c1OC1(CCCC1)C2 [Compound 7, 2,3-Dihydro-7-methoxybenzofuran-2-spiro-1'-cyclopentane-4-carboxylic acid-2,6-dichloroanilide] | 8.57 |
| COc1ccc(C(=O)Nc2c(Cl)cncc2Cl)c2c1OC1(CCCC1)C2 [Compound 2, 2,3-Dihydro-7-methoxybenzofuran-2-spiro-1'-cyclopentan-4-carboxylic acid-N-3,5-dichloro-4-pyridylamide] | 9.42 |
| O=C(Nc1c(Cl)cncc1Cl)c1ccc(OC(F)F)c2c1CC1(CCCC1)O2 [Compound 3, 7-Difluoromethoxy-2,3-dihydrobenzofuran-2-spiro-1'-cyclopentane-4-carboxylic acid-N-3,5-dichloro-4-pyridylamide] | 9.87 |

Source: US6121274A, “Dihydrobenzofurane” (Byk Gulden Lomberg Chemische Fabrik GmbH, priority 1994, dated 2000)
